For data set [1], the system named is HER-2 receptor (Hsp90 client) in MCF-7 cells. The data set can be described thus: HER-2 degradation assay (MCF-7 cells, 16 h, phycoerythrin-labeled antibody and flow cytometry). It is filed as cell-based, human. (In flow cytometry, cells or beads pass a laser one at a time.)
The nature of data set [2]: Solubility in simulated gastric fluid, simulated intestinal fluid and serum. In kind it is physicochemical. The following applies: for Gastric (PH 2.0): solubility in simulated gastric fluid; for Serum (PH 7.4): solubility in serum; for Intestinal (PH 6.5): solubility in simulated intestinal fluid.
The test system of data set [3] is Purified native Hsp90 protein (mixture of alpha and beta) from HeLa cells. The data set can be described thus: Fluorescence-based competitive binding assay for biotinylated-geldanamycin to purified Hsp90. Also noted: species or system human. The note with it: HSP90 binding ability; competition with biotin-GM.
For the next data set, the system named is Her-2 in MCF-7 cells. The data set can be described thus: HER2 inhibition assay (Her-2 degradation, MCF-7 cells, 24 incubation, flow cytometry). In kind it is cell-based. The following applies: Homo sapiens, MCF7, concentration necessary to degrade 50% of Her 2 expression. The protocol: MCF-7 cells are seeded in 24 well plates at a density of approximately 30,000 cells/well and allowed to grow for 16 hours in DMEM supplemented with 10% FBS. Drug is then added at a concentration range of 100 uM to 0.01 uM. Cells are incubated for an additional […]. Drug treated cells and untreated control cells are trypsinized, and incubated at room temperature for 15 minutes with anti Her-2 neu Ab conjugated with phycoerythrin (Becton Dickinson, San Jose Calif.; Cat no. 340552) at a concentration of 0.25 ug/ml, or non-specific control IgG1 conjugated with phycoerythrin (Becton Dickinson, San Jose Calif.; Cat no. 340761). Samples were analyzed using a FACS Calibur flow cytometer (Becton Dickinson) equipped with Argon-ion laser that which emits 15 mW of 488 nm light for excitation of the phycoerythrin fluorochrome. 10,000 events were collected per sample. A fluorescence histogram was generated and the mean fluorescence intensity (mfi) of each sample was determined using Cellquest software. The background was defined as the mfi generated from cells incubated with control IgG, and was subtracted from each sample stained with the HER-2/neu Ab Percent degradation of Her-2 was calculated as follows: % Her-2 degradation=(mfi HER-2 sample)/(mfi HER-2 untreated cells)×100
The compounds in the table below were prepared as described above and evaluated for Her-2 degradation ability based on the above assay (example 314).

[4] abbreviates: Homo sapiens, MCF7, read-out: HER-2 IC50(nM).
[5] abbreviates: Homo sapiens, MCF7, benzothiozole moiety SAR, MCF-7, read-out: HER-2 IC50.
The mark [6] stands for this setting: Homo sapiens, MCF7, read-out: HER-2.
The mark [7] stands for this setting: Homo sapiens, MCF7, MCF-7 cells, 16 h, average of at least three observations, read-out: HER-2 IC50.

Molecules are shown by their SMILES. Like-named read-outs stand apart in the source and are kept apart here.

In the case of `CCCCn1c(Sc2nc3cncc(Cl)c3s2)nc2c(N)ncnc21` [Compound 177, 9-Butyl-8-(7-chloro-thiazole[4,5-c]pyridin-2-ylsulfanyl)-9H-purin-6-ylamine], in data set [1] (pyridothiazole moiety SAR, HER-2 degradation activity, read-out: HER-2), the IC50 was found to be 280 nM. As to `CCCCn1c(Sc2nc3cccc(Br)c3s2)nc2c(N)ncnc21` [Compound 171, 8-(7-Bromo-benzothiazol-2-ylsulfanyl)-9-butyl-9H-purine-6-ylamine], the IC50 in data set [1] (setting [4]) came to 330 nM. On to `CCCCn1c(Sc2nc3c(Cl)cccc3s2)nc2c(N)ncnc21` [Compound 181, 9-Butyl-8-(4-chloro-benzothiazol-2-ylsulfanyl)-9H-purine-6-ylamine], for which the IC50 in data set [1] (setting [5]) was 15000 nM. Regarding `CCn1c(Sc2nc3cccc(Cl)c3s2)nc2c(N)ncnc21` [Compound 229, 9-ethyl-8-(7-chloro-benzothiazol-2-ylsulfanyl)-9H-purine-6-ylamine], in data set [1] (setting [6]), the IC50 came out at 200 nM.

Turning to `CCCCn1c(Sc2cc(OC)ccc2OC)nc2c(N)ncnc21` [Compound 43, 9-Butyl-8-(2,5-dimethoxy-phenylsulfanyl)-9H-purin-6-ylamine], in data set [1] (setting [7]), the IC50 was determined as 3500 nM. On the same count and under the same terms, the value for `CCCCn1c(Cc2cc(OC)ccc2I)nc2c(N)ncnc21` [Compound 20, 9-Butyl-8-(2-iodo-5-methoxy-benzyl)-9H-purin-6-ylamine] was 5000 nM. On to `CC(=O)OCCn1c(Sc2nc3cncc(Br)c3s2)nc2c(N)ncnc21` [Compound 204, Acetic acid 2-[6-amino-8-(7-bromo-thiazole[4,5-c]pyridin-2-ylsulfanyl)-purin-9-yl]-ethyl ester], for which the “Gastric (PH 2.0)” value in data set [2] was 98.5 µg/mL. The IC50 in data set [1] (read-out: HER-2) was found to be 30 nM.

In the case of `CCCCn1c(Sc2nc3ccc(Cl)cc3s2)nc2c(N)ncnc21` [Compound 179, 9-Butyl-8-(6-chloro-benzothiazol-2-ylsulfanyl)-9H-purine-6-ylamine], the IC50 in data set [1] (setting [5]) worked out at 7000 nM.

As to `Nc1ncnc2c1nc(Sc1nc3cccc(Cl)c3s1)n2CCCCO` [Compound 246, 4-[6-Amino-8-(7-chloro-benzothiazol-2-ylsulfanyl)-purin-9-yl]-butan-1-ol], in data set [1] (setting [6]), the IC50 came out at 150 nM. As to `CCCCn1c(Sc2nc3cccc(Cl)c3s2)nc2c(N)ncnc21` [Compound 232, 9-Butyl-8-(7-chloro-benzothiazol-2-ylsulfanyl)-9H-purine-6-ylamine], the IC50 in data set [1] (setting [6]) and in data set [1] (setting [4]) was 180 nM throughout. `CCCCn1c(Sc2nc3ccc(Cl)c(Cl)c3s2)nc2c(N)ncnc21` [Compound 185, 9-Butyl-8-(6,7-dichloro-benzothiazol-2-ylsulfanyl)-9H-purine-6-ylamine]: in data set [1] (setting [5]), the IC50 was 25000 nM. For `CC(C)(C)NCCCn1c(Sc2nc3cccc(Cl)c3s2)nc2c(N)ncnc21` [Compound 253, 9-(3-tert-Butylamino-propyl)-8-(7-chloro-benzothiazol-2-ylsulfanyl)-9H-purin-6-yl amine], in data set [2], the “Serum (PH 7.4)” value is 198.7 µg/mL and the “Intestinal (PH 6.5)” value is 137.7 µg/mL. For the same compound, the IC50 in data set [1] (setting [6]) is 150 nM. As to `C#CCCCn1c(Sc2cc(OC)ccc2I)nc2c(N)nc(F)nc21` [Compound 68, 2-Fluoro-8-(2-iodo-5-methoxy-phenylsulfanyl)-9-pent-4-ynyl-9H-purin-6-ylamine], the IC50 in data set [1] (setting [7]) was determined as 360 nM. `COc1ccc(OC)c(Cc2nc3c(N)ncnc3n2CCC=C(C)C)c1` [Compound 10, 8-(2,5-Dimethoxy-benzyl)-9-(4-methyl-pent-3-enyl)-9H-purin-6-ylamine]: the IC50 in data set [3] worked out at 2.8 µM; in the data set with Her-2 in MCF-7 cells, 1.5 µM. `CCCCn1c(Sc2nc3cncc(Br)c3s2)nc2c(N)ncnc21` [Compound 207]: the IC50 in data set [1] (setting [6]) amounted to 400 nM. Take `CC(C)NCCCn1c(Sc2nc3cccc(Cl)c3s2)nc2c(N)ncnc21` [Compound 266, 8-(7-Chloro-benzothiazol-2-ylsulfanyl)-9-(3-isopropylamino-propyl)-9H-purin-6-yl amine]: the IC50 in data set [1] (setting [6]) is 170 nM. In the case of `CCCCn1c(Sc2nc3cc(Cl)ccc3s2)nc2c(N)ncnc21` [Compound 180, 9-Butyl-8-(5-chloro-benzothiazol-2-ylsulfanyl)-9H-purine-6-ylamine], the IC50 in data set [1] (setting [5]) was determined as 20000 nM. As to `CC(C)(C)NCCn1c(Sc2nc3cccc(Cl)c3s2)nc2c(N)ncnc21` [Compound 265, 9-(2-tert-Butylamino-ethyl)-8-(7-chloro-benzothiazole-2-ylsulfanyl)-9H-purin-6-yl amine], the IC50 in data set [1] (setting [6]) was 140 nM. For the compound `CCCCn1c(Sc2nc3cccc(C)c3s2)nc2c(N)ncnc21` [Compound 172, 9-Butyl-8-(7-methyl-benzothiazol-2-ylsulfanyl)-9H-purine-6-ylamine], in data set [1] (setting [4]), the IC50 is 300 nM. For `Nc1ncnc2c1nc(Sc1nc3cccc(Cl)c3s1)n2CCN1CCOCC1` [Compound 270, 8-(7-Chloro-benzothiazol-2-ylsulfanyl)-9-(2-morpholin-4-yl-ethyl)-9H-purin-6-ylamine], the IC50 in data set [1] (setting [6]) was 250 nM.

Regarding `CCCCn1c(Cc2cc(OC)ccc2Br)nc2c(N)ncnc21` [Compound 23, 8-(2-Bromo-5-methoxy-benzyl)-9-butyl-9H-purin-6-ylamine], the IC50 in data set [1] (setting [7]) stood at 8000 nM. Regarding `CCCCn1c(Sc2nc3cccc(OC)c3s2)nc2c(N)ncnc21` [Compound 173, 9-Butyl-8-(7-methoxy-benzothiazol-2-ylsulfanyl)-9H-purine-6-ylamine], in data set [2], the “Serum (PH 7.4)” value is 18 µg/mL, the “Gastric (PH 2.0)” value was 35 µg/mL and the “Intestinal (PH 6.5)” value is 2 µg/mL. In addition, the IC50 in data set [1] (setting [4]) worked out at 190 nM.

As to `CC(C)(C)CNCCn1c(Sc2nc3cccc(Cl)c3s2)nc2c(N)ncnc21` [Compound 247, 8-(7-Chloro-benzothiazol-2-ylsulfanyl)-9-[2-(2,2-dimethyl-propylamino)-ethyl]-9H-purin-6-yl amine], in data set [2], the “Serum (PH 7.4)” value was 4.9 µg/mL and the “Intestinal (PH 6.5)” value is 6 µg/mL. In addition, the IC50 in data set [1] (setting [6]) was determined as 35 nM.

With `CCCCn1c(Sc2nc3ccccc3s2)nc2c(N)ncnc21` [Compound 178, 8-(Benzothiazol-2-ylsulfanyl)-9-butyl-9H-purine-6-ylamine], in data set [1] (setting [5]), the IC50 turned out to be 5000 nM.

`CC(=O)OCCCn1c(Sc2nc3cncc(Cl)c3s2)nc2c(N)ncnc21` [Compound 205, Acetic acid 3-[6-amino-8-(7-chloro-thiazolo[4,5-c]pyridin-2-ylsulfanyl)-purin-9-yl]-propyl ester]: in data set [1] (setting [6]), the IC50 is 170 nM.

As for `CCCCCn1c(Sc2nc3cccc(Cl)c3s2)nc2c(N)ncnc21` [Compound 233, 9-Pentyl-8-(7-chloro-benzothiazol-2-ylsulfanyl)-9H-purine-6-ylamine], the IC50 in data set [1] (setting [6]) turned out to be 700 nM. On to `C#CCCCn1c(Cc2cc(OC)ccc2OC)nc2c(N)nc(F)nc21` [Compound 2, 8-(2,5-dimethoxybenzyl)-N9-pentynyl-2-fluoro adenine], for which, in the data set on Her-2 in MCF-7 cells, the IC50 is 0.6 µM. Regarding `Nc1ncnc2c1nc(Sc1nc3cccc(Cl)c3s1)n2CCCO` [Compound 245], the IC50 in data set [1] (setting [6]) was 150 nM. `CCCCn1c(Sc2nc3cccc(F)c3s2)nc2c(N)ncnc21` [Compound 175, 9-Butyl-8-(7-fluoro-benzothiazol-2-ylsulfanyl)-9H-purine-6-ylamine]: the IC50 in data set [1] (setting [4]) came out at 200 nM.

Take `CCCCn1c(Sc2nc3cccc(OCC)c3s2)nc2c(N)ncnc21` [Compound 174, 9-Butyl-8-(7-ethoxy-benzothiazol-2-ylsulfanyl)-9H-purine-6-ylamine]: the IC50 in data set [1] (setting [5]) was determined as 100000 nM. Turning to `Nc1ncnc2c1nc(Sc1nc3cccc(Cl)c3s1)n2CCO` [Compound 244, 2-[6-Amino-8-(7-chloro-benzothiazol-2-ylsulfanyl)-purin-9-yl]-ethanol], in data set [1] (setting [6]), the IC50 worked out at 300 nM. With `CC(=O)OCCCCn1c(Sc2nc3cccc(Cl)c3s2)nc2c(N)ncnc21` [Compound 243, Acetic acid 4-[6-amino-8-(7-chloro-benzothiazol-2-ylsulfanyl)-purin-9-yl]-butyl ester], in data set [2], the “Gastric (PH 2.0)” value was 46 µg/mL and the “Intestinal (PH 6.5)” value is 3 µg/mL. In addition, in data set [1] (setting [6]), the IC50 is 130 nM.

On to `CCCn1c(Sc2nc3cccc(Cl)c3s2)nc2c(N)ncnc21` [Compound 231, 9-Propyl-8-(7-chloro-benzothiazol-2-ylsulfanyl)-9H-purine-6-ylamine], for which the IC50 in data set [1] (setting [6]) turned out to be 250 nM. Take `N#CCCCCn1c(Sc2nc3cccc(Cl)c3s2)nc2c(N)ncnc21` [Compound 284, 5-[6-Amino-8-(7-chloro-benzothiazol-2-ylsulfanyl)-purin-9-yl]-pentanenitrile]: in data set [2], the “Serum (PH 7.4)” value is 31.3 µg/mL, the “Gastric (PH 2.0)” value is 58.7 µg/mL and the “Intestinal (PH 6.5)” value was 4.4 µg/mL. The IC50 in data set [1] (setting [6]) is 110 nM. Take `CC(=O)OCCn1c(Sc2nc3cccc(Cl)c3s2)nc2c(N)ncnc21` [Compound 241, Acetic acid 2-[6-amino-8-(7-chloro-benzothiazol-2-ylsulfanyl)-purin-9-yl]-ethyl ester]: the IC50 in data set [1] (setting [6]) worked out at 150 nM.

The values above are taken from patent US20070129334A1, “Orally Active Purine-Based Inhibitors of Heat Shock Protein 90” (CONFORMA THERAPEUTICS CORPORATION, priority 2001, published 2007).
